Like-named read-outs stand apart in the source and are kept apart here.
Key:
[1] = format: physicochemical; details: SGF with pepsin, pH 1.5, 37° C., 0.5 mM
SERT = SERT (Homo sapiens (Human), UniProt P31645); format: cell-based; details: stable 5HTT cells, 30 minutes at 37° C.
[2] = Pharmacokinetics of 043 and 001 in mice after oral 043 (75 mg/kg); format: in vivo, male C57BL/6 mice
Experimental: Total twelve male mice were used in this study. […] The formulation vehicle used was normal saline.
The plasma and brain concentration-time data of 043 and 001 was used for the pharmacokinetic analysis.
The extraction procedure for plasma/brain samples and the spiked plasma/brain calibration standards were identical:
A 25 μL of study sample plasma/brain (dilution applied to some samples) or spiked plasma calibration standard was added to individual pre-labeled micro-centrifuge tubes followed by 100 μL of internal standard prepared in acetonitrile (Glipizide-500 ng/mL) was added except for blank, where 100 μL of acetonitrile was added. Samples were vortexed for 5 minutes. Samples were centrifuged for 10 minutes at a speed of 4000 rpm at 4° C. Following centrifugation, 100 μL of clear supernatant was transferred in 96 well plates and analyzed using LC-MS/MS.

[3] = Experimental: Brain samples were homogenized with PBS (W/V, 1:3). Plasma/brain samples were mixed with acetonitrile containing internal standard. The samples were vortexed then centrifuged at 4 degrees Celsius for 15 minutes. The supernatant was diluted with water (1:2 V/V) and analyzed by LC/MS/MS for quantitative analysis. […] Area under the curve (AUC) was calculated and divided by dose to account for molecular weight difference of prodrug and metabolite (AUC/D).
[4] = in vivo; for Plasma levels of 001: mouse, iv, 2 mg/kg
Experimental: Male C57/BL6 mice were used to evaluate each compound, with n=3 mice/time point.
Animals were administered through intravenous route with solution formulation at 2 mg/kg dose. […] Following blood collection, immediately, animals were sacrificed, and vena-cava was cut open and blood was drained. […] Brain samples were collected from set of three mice at each time point. […] Brain samples were homogenized using 2 volumes of ice-cold PBS (pH-7.4) of brain weight. […] Concentrations of compound (or compound and metabolite) in mouse plasma and brain samples were determined by fit for purpose LC-MS/MS method.

[5] = format: physicochemical; details: DI water, 25° C., 0.5 mM
[6] = 5 μM
[7] = 5 μM; remark: listed apart in the source
[8] = analyte = label, single oral administration of 043, 75 mg/kg, male C57BL/6 mice
[9] = brain, analyte = label, single oral administration of 043, 75 mg/kg, male C57BL/6 mice
[10] = plasma, analyte = label, single oral administration of 043, 75 mg/kg, male C57BL/6 mice

| Structure (SMILES) | Condition 1 Conversion (%) ([1]; time 1 min) | Condition 1 Conversion (%) ([1]; time 5 min) | Condition 1 Conversion (%) ([1]; time 30 min) | Condition 1 Conversion (%) ([1]; time 1 h) | Condition 1 Conversion (%) ([1]; time 4 h) | Condition 1 Conversion (%) ([1]; time 24 h) | IC50 (SERT) | other results |
| --- | --- | --- | --- | --- | --- | --- | --- | --- |
| CO/N=C1/CC[C@@]2(c3ccc(OC)c(OC)c3)CCN(C)[C@H]2C1 [Compound 035, (Z, 3aS,7aS)-3a-(3,4-dimethoxyphenyl)-N-methoxy-1-methyl-2,3,4,5,7,7a-hexahydroindol-6-imine] | 0% | 0% | 5.4% | 13.1% | 35.2% | 38.9% | < 50 nM | – |
| CO/N=C1\CC[C@@]2(c3ccc(OC)c(OC)c3)CCN(C)[C@H]2C1 [Compound 038, (E,3aS,7aS)-3a-(3,4-dimethoxyphenyl)-N-methoxy-1-methyl-2,3,4,5,7,7a-hexahydroindol-6-imine] | 0% | 0% | 1.3% | 11.9% | 31.3% | 49.9% | < 50 nM | – |
| COc1ccc([C@]23CCN(C)[C@H]2CC2(CC3)OCCO2)cc1OC [Compound 043] | 0% | 0% | 0% | 0% | 0% | 0% | < 50 nM | conversion of prodrug to 001 in vivo ([2]; 75 mg/kg po in mice): efficiently converts to 001 in vivo; Brain concentrations quantifiable up to [2, 8]: 4 h; brain exposure-Kp [2, 8]: < 1; AUClast [2, 9]: 1787.23 ng·h/mL; Cmax [2, 9]: 2684.81 ng/mL; Tmax [2, 9]: 30 min; AUClast [2, 10]: 2555.07 ng·h/mL; Cmax [2, 10]: 3392.53 ng/mL; Tmax [2, 10]: 30 min |
| COc1ccc(C23CCN(C)C2CC2(CC3)OCCO2)cc1OC (centres unmarked) [Compound 044] | 0% | 0% | 0% | 0% | 0% | 0% | > 1000 nM | – |
| COc1ccc([C@]23CCN(C)[C@H]2CC2(CC3)SCCS2)cc1OC [Compound 045, (3′aS,7′aS)-3′a-(3,4-dimethoxyphenyl)-1′-methyl-spiro[1,3-dithiolane-2,6′-2,3,4,5,7,7a-hexahydroindole]] | 0% | 0% | 0% | 0% | 0% | 0% | > 1000 nM | – |
| COc1ccc([C@@]23CCN(C)[C@@H]2CC2(CC3)SCCS2)cc1OC [Compound 046, (3′aR,7′aR)-3′a-(3,4-dimethoxyphenyl)-1′-methyl-spiro[1,3-dithiolane-2,6′-2,3,4,5,7,7a-hexahydroindole]] | 0% | 0% | 0% | 0% | 0% | 0% | 100 to 500 nM | – |
| CCC(C)CC(=O)OC1=C[C@@H]2N(C)CC[C@]2(c2ccc(OC)c(OC)c2)CC1 (stereo partly drawn) [Compound 316, [(3aS,7aS)-3a-(3,4-dimethoxyphenyl)-1-methyl-3,4,5,7a-tetrahydro-2H-indol-6-yl]3-methyl pentanoate] | – | – | – | – | – | – | – | conversion of prodrug to 001 in vivo ([3]; 2 mg/kg iv in rat): converts to 001 in vivo in rat; 001 brain levels quantifiable up to ([3]; rat, in vivo): 3 h |
| CCC(=O)OC1=C[C@@H]2N(C)CC[C@]2(c2ccc(OC)c(OC)c2)CC1 [Compound 317, [(3aS,7aS)-3a-(3,4-dimethoxyphenyl)-1-methyl-3,4,5,7a-tetrahydro-2H-indol-6-yl]propanoate] | 0% | 0% | 0% | 0% | 0% | 0% | – | quantifiable levels of 001 in plasma up to ([4]; male, C57BL/6, mouse): 60 min; Plasma levels of 001 [4]: not detectable; Condition 2 Conversion (%) ([5]; time 1 min): 0%; Condition 2 Conversion (%) ([5]; time 5 min): 0%; Condition 2 Conversion (%) ([5]; time 30 min): 0%; Condition 2 Conversion (%) ([5]; time 1 h): 0%; Condition 2 Conversion (%) ([5]; time 4 h): 0%; Condition 2 Conversion (%) ([5]; time 24 h): 0% |
| COc1ccc([C@@]23CCC(OC(=O)CC(C)C)=C[C@@H]2N(C)CC3)cc1OC [Compound 334, [(3aS,7aS)-3a-(3,4-dimethoxyphenyl)-1-methyl-3,4,5,7a-tetrahydro-2H-indol-6-yl]3-methylbutanoate] | 0% | 0% | 0% | 0% | 0% | 0% | – | quantifiable levels of 001 in brain up to ([4]; male, C57BL/6, mouse): 2 h; quantifiable levels of 001 in plasma up to ([4]; male, C57BL/6, mouse): 60 min; Plasma levels of 001 [4]: not detectable; Condition 2 Conversion (%) ([5]; time 1 min): 0%; Condition 2 Conversion (%) ([5]; time 5 min): 0%; Condition 2 Conversion (%) ([5]; time 30 min): 0%; Condition 2 Conversion (%) ([5]; time 1 h): 0%; Condition 2 Conversion (%) ([5]; time 4 h): 0%; Condition 2 Conversion (%) ([5]; time 24 h): 0%; Mouse Plasma Compound 001 (%) ([6]; 15 min): 73.1%; Mouse Plasma Compound 001 (%) ([6]; 30 min): 70.9%; Mouse Plasma Compound 001 (%) ([6]; 60 min): 68.8%; Mouse Plasma Compound 001 (%) ([6]; 120 min): 70.0%; Mouse Plasma Compound 001 (%) ([6]; 240 min): 68.5%; Human Plasma Compound 001 (%) ([7]; 15 min): 63.6%; Human Plasma Compound 001 (%) ([7]; 30 min): 63.7%; Human Plasma Compound 001 (%) ([7]; 60 min): 65.4%; Human Plasma Compound 001 (%) ([7]; 120 min): 65.1%; Human Plasma Compound 001 (%) ([7]; 240 min): 63.8% |

Source: patent US20250051277A1, “DELIVERY OF THERAPEUTIC ALKALOID COMPOUNDS” (Sensorium Therapeutics, Inc., priority 2021, published 2025)
